Assay [1] has as its target T1, alpha-synuclein (sonicated fibrils) (Homo sapiens, UniProt P37840).
T1 construct: made in house; host or cells: E. coli
Kind of assay: Modified competition binding assay, protocol 3b, reference ligand [3H]-compound 1. To be noted: reference ligand [3H]-compound 1 (1 nM). How it is done: Fibrils were prepared by aggregation of recombinant protein via constant agitation. In detail, 70 μM of alpha-synuclein mixed with 100 mM NaCl in 50 mM Tris, pH 7.0+0.02% NaN3 were incubated at 1,400 rpm, 37° C. for 96 h. 10 μM of tau46 were incubated with 0.03 mg/ml heparin in 50 mM Tris, pH=7.0 at 1,000 rpm, 37° C. for 72 h.
Plates were incubated for 4.5 hours at RT covered by removable sealing tape (PerkinElmer, Waltham, Mass., USA).
Filtration and readout were performed as described for saturation binding assays.
The fibril competition assay provides Ki values. […] This assay is suitable for a screening of non-radioactive ligands.

Assay [2] addresses T1, alpha-synuclein (sonicated fibrils). Kind of assay: Modified competition binding assay, protocol 3b, reference ligand [3H]-compound 2. The settings on record: Table 5, reference ligand [3H]-compound 2 (1 nM). How it is done: (§1) Alpha-synuclein and tau46 were purified from E. coli according to established protocols (Nuscher B, et al., J. Biol. Chem., 2004; 279(21):21966-75), Aβ1-42 was obtained from rPeptide, Watkinsville, Ga., USA. Fibrils were prepared by aggregation of recombinant protein via constant agitation. In detail, 70 μM of alpha-synuclein mixed with 100 mM NaCl in 50 mM Tris, pH 7.0+0.02% NaN3 were incubated at 1,400 rpm, 37° C. for 96 h. 10 μM of tau46 were incubated with 0.03 mg/ml heparin in 50 mM Tris, pH=7.0 at 1,000 rpm, 37° C. for 72 h. Aβ1-42 was solved in 20 mM NaPi, pH=8.0+0.2 mM EDTA+0.02% NaN3 (Deeg A A, et al., Biochim. Biophys. Acta, 2015; 1850(9): 1884-90; Goedert M, et al. Nature, 1996; 383(6600): 550-3).
For competition binding experiments, a fixed concentration of recombinant αSYN fibrils (sonicated, 15 nM/well) was incubated with 1 nM [^3H]-compound 1 or [3H]-compound 2 and decreasing concentrations of a serial dilution of non-labeled competitor (serial dilution 1:4 or 1:3.5 or 1:3 providing the concentration ranges of non-labeled competitor 1 μM-[…] 1 μM-4 nM or 1 μM-[…], respectively) in 30 mM Tris-HCl, 10% ethanol, 0.05% Tween20, pH 7.4 in a total volume of 200 μL/well. Plates were incubated for 4.5 hours at RT covered by removable sealing tape (PerkinElmer, Waltham, Mass., USA).
Filtration and readout were performed as described for saturation binding assays. [^3H]-labeled ligand binding [in CMP] was plotted against increasing competitor concentrations and data points were fitted using non-linear regression analysis to calculate the IC50 and Ki values (GraphPad Software, Inc., Version 7.03, La Jolla (Calif.), USA). In the competition binding assay with sonicated recombinant αSYN fibrils, the calculation of Ki values was done based on KD values of 0.6 nM and 0.2 nM for compound 1 and compound 2, respectively.
(§2) The fibril competition assay provides Ki values. Ki is a quantitative measure that represents the concentration of the non-radioactive tested compound (competitor ligand) required to replace 50% of a reference compound, in this case [H]-compound 1 (1 nM) or [H]-compound 2 (1 nM), which is bound to the target structures (1 nM), in our case recombinant alpha-synuclein and tau46 fibrils. This assay is suitable for a screening of non-radioactive ligands.

For assay [3], the system named is H4 cells overexpressing alpha-synuclein hemi-Venus fusion constructs (V1S+SV2). Kind of assay: Cellular model of aggregated alpha-synuclein-dependent toxicity, V1S+SV2 H4 cells. To be noted: 10 μM compound, 100 μM FeCl3, 0.75% DMSO, 48 h; for inhibition at 10 µM: read-out: Change in fraction of condensed nuclei (rel. to DMSO control) [%]. Format: cell-based. The method, then:
(§3) To identify potential therapeutically useful effects, compounds were tested in two cellular models of aggregated alpha-synuclein-dependent toxicity in H4 cells. These cellular models allow for the inducible overexpression of alpha-synuclein hemi-Venus fusion constructs (V1S+SV2) or full-length alpha-synuclein (the model is described in detail in: Bartels M, Weckbecker D, Kuhn P H, Ryazanov S, Leonov A, Griesinger C, Lichtenthaler S F, Bötzel K, Giese A: Iron-mediated aggregation and toxicity in a novel neuronal cell culture model with inducible alpha-synuclein expression, Sci. Rep. 2019 Jun. 24; 9(1):9100). Moreover, addition of DMSO and FeCl3 promotes the aggregation of alpha-synuclein which is associated with an increase in cytotoxicity. The cell culture assay uses these effects by determining the change in the number of cells and the change in the percentage of condensed nuclei, which is indicative of apoptosis, in order to obtain information on which compounds show the most promising effects and thus might be therapeutically useful.
(§4) In these experiments, cells were incubated with 100 μM FeCl3 and 0.75% DMSO in the presence of 10 μM anle138c as a positive control, compounds 1 to 19 (10 μM), or DMSO as a negative control. After 48 h, the cells were imaged with an OPERA high-throughput imaging system and analyzed using Acapella software (Perkin Elmer). […] A reduction in the fraction of condensed nuclei (in the absence of a strong reduction in cell number) is indicative of a beneficial therapeutic effect.

The subject of assay [4] is H4 cells overexpressing full-length alpha-synuclein. Kind of assay: Cellular model of aggregated alpha-synuclein-dependent toxicity, full-length alpha-synuclein H4 cells. To be noted: 10 μM compound, 100 μM FeCl3, 0.75% DMSO, 48 h; for inhibition at 10 µM: read-out: Change in fraction of condensed nuclei (rel. to DMSO control) [%]. Format: cell-based. The method, then:
as §3, §4

In assay [5] the target is T2, alpha-synuclein (fibrils) (Homo sapiens, UniProt P37840).
T2 construct: made in house; host or cells: E. coli
Kind of assay: Competition binding assay, protocol 3a, reference ligand [3H]-compound 1, alpha-synuclein fibrils. To be noted: reference ligand [3H]-compound 1 (1 nM). The method, then:
as §1
A fixed concentration of sonicated human recombinant αSYN (200 nM/well) or tau46 (208 nM/well) fibrils diluted in phosphate buffered saline (PBS) were incubated in low binding plates (96 well micro test plate, Ratiolab GmbH, Dreieich, Germany) together with 1 nM [^3H]-compound 1 and 1:4 serial dilutions of the cold compound of interest starting from 1 μM diluted in 50 mM Tris-base, 10% EtOH, 0.05% Tween20, pH 7.4. For the calculation of Ki values the KD value of compound 1 toward sonicated human recombinant αSYN fibrils was set to 3 nM.
Assay plates were incubated under agitation at 37° C. for 2 h covered by plastic foil (Resealable tape, PerkinElmer, Waltham, Mass., USA). Prior to harvesting, a filter (Printed filtermat B, PerkinElmer, Waltham, Mass., USA) was incubated with 5 mg/mL polyethylenimine (PEI, Poly(ethyleneimine) solution, Sigma Aldrich Chemie GmbH, Taufkirchen, Germany) at 4° C. for 30 min. After incubation, bound and free ligands were separated by vacuum filtration using a harvester (Filtermate harvester, PerkinElmer, Waltham, Mass., USA). The filter was washed three times with buffer cooled to 4° C. and subsequently dried in the microwave for 2 min at medium power. The filter was sealed in a plastic bag (Sample bag for MicroBeta®, PerkinElmer, Waltham, Mass., USA) together with added scintillator (BETAPLATE SCINT, PerkinElmer, Waltham, Mass., USA). Accumulation of tritium was counted in a liquid scintillation counter (Wallac MicroBeta® TriLux, 1450 LSC & Luminescence Counter, PerkinElmer, Waltham, Mass., USA) immediately. Radioactivity was plotted against the increasing tritium-labeled compound or cold compound concentrations. Data points were fitted using nonlinear regression analysis in GraphPad Prism (GraphPad Software, Inc., Version 7.03, La Jolla, Calif., USA).
as §2

Setting [6] is: Table 4b, read-out: Ki (nM) alpha-synuclein (sonicated fibrils).
[7] abbreviates: Experiment A, read-out: Ki (nM) alpha-synuclein (fibrils).
The mark [8] stands for this setting: Experiment B, read-out: Ki (nM) alpha-synuclein (sonicated fibrils).
Setting [9] is: Table 6 comparison series, read-out: Ki (nM), sonicated alpha-synuclein fibrils.

Molecules are shown by their SMILES. Read-outs that look alike come from different tables or passages of the source.

A word on the Ki: it is the dissociation constant of the complex between target and ligand, obtained from inhibition or displacement.

For `CNc1ccc(-c2cc(-c3cncc(Br)c3)[nH]n2)cc1` [Compound 56, 4-[5-(5-bromopyridin-3-yl)-1H-pyrazol-3-yl]-N-methylaniline], the Ki in assay [1] (setting [6]) came to 2.6 nM; in assay [2] it was 3.3 nM.
Regarding `CN(C)c1ncc(-c2cc(-c3ccnc(Br)c3)[nH]n2)cn1` [Compound 6, 5-[5-(2-bromopyridin-4-yl)-1H-pyrazol-3-yl]-N,N-dimethylpyrimidin-2-amine], the “Change in cell number (rel. to DMSO control) [%]” value (“Change in cell number … [%]” for short) in assay [3] was −34.0%; in assay [4], −31.0%. For the same compound, the inhibition at 10 µM in assay [3] is -53.6%; in assay [4], -5.4%. For the same compound, the figures for the Ki in assay [5] (setting [7]), in assay [5] (setting [8]) and in assay [2] were 24 nM, > 300 nM and 8.9 nM, respectively.
For `Brc1ccnc(-c2cc(-c3ccc4c(c3)OCO4)n[nH]2)c1` [Compound 16, 2-[3-(1,3-benzodioxol-5-yl)-1H-pyrazol-5-yl]-4-bromopyridine], the values for the Ki in assay [1] (setting [6]) and in assay [2] were 5.2 nM and 4.7 nM, respectively. Further, the results for the “Change in cell number … [%]” value in assay [3] and in assay [4] were −40.2% and −47.1%, respectively. The inhibition at 10 µM was -56.8% in assay [3] and -0.8% in assay [4].
As to `Brc1cccc(-c2cc(-c3ccc4c(c3)OCO4)n[nH]2)n1` [Compound 15, 2-[3-(1,3-benzodioxol-5-yl)-1H-pyrazol-5-yl]-6-bromopyridine], the inhibitory constant (Ki) in assay [1] (setting [6]) is 6.7 nM; in assay [2] it was 6.6 nM. The figures for the “Change in cell number … [%]” value in assay [3] and in assay [4] were −11.3% and −11.2%, respectively. The inhibition at 10 µM is -23.1% in assay [3] and -20.3% in assay [4].
As to `CNc1ccc(-c2cc(-c3cc(Br)ccn3)[nH]n2)cc1` [Compound 57, 4-[5-(4-bromopyridin-2-yl)-1H-pyrazol-3-yl]-N-methylaniline], the Ki in assay [1] (setting [6]) stood at 3.3 nM; in assay [2] it was 2.8 nM.
On to `CN(C)c1ncc(-c2cc(-c3cccc(Br)c3)[nH]n2)cn1` [Compound 5, 5-[5-(3-bromophenyl)-1H-pyrazol-3-yl]-N,N-dimethylpyrimidin-2-amine], for which the “Change in cell number … [%]” value in assay [3] is given as −12.4%; in assay [4] it was −14.6%. Moreover, the inhibition at 10 µM in assay [3] worked out at 27.3%; in assay [4], 34.2%. Besides, the inhibitory constant (Ki) in assay [5] (setting [7]) is 27 nM; in assay [5] (setting [8]), > 60 nM; in assay [2] it was 13 nM.
Consider `CN(C)c1ccc(-c2cc(-c3cccc(Br)c3)[nH]n2)cc1` [Compound 65, reference compound], for which the Ki in assay [1] (setting [9]) was 1.9 nM.
Turning to `Brc1cccc(-c2cc(-c3cc4c(cn3)OCO4)n[nH]2)c1` [Compound 20, 6-[3-(3-bromophenyl)-1H-pyrazol-5-yl]-1,3-dioxolo[4,5-c]pyridine], the Ki was found to be 3.1 nM in assay [1] (setting [6]) and 5.5 nM in assay [2].
On to `CNc1ccc(-c2cc(-c3cccc(Br)c3)[nH]n2)cc1` [Compound 64, reference compound], for which, in assay [1] (setting [9]), the Ki turned out to be 3.4 nM.
With `CN(C)c1ncc(-c2cc(-c3ccnc(F)c3)[nH]n2)cn1` [Compound 8, 5-[5-(2-fluoropyridin-4-yl)-1H-pyrazol-3-yl]-N,N-dimethylpyrimidin-2-amine], the figures for the “Change in cell number … [%]” value in assay [3] and in assay [4] were −4.5% and −5.7%, respectively. The inhibition at 10 µM in assay [3] is -14.2%; in assay [4], -10.7%. Moreover, the Ki in assay [5] (setting [7]) was 43 nM; in assay [2] it was 9.9 nM.
Take `CNc1ccc(-c2cc(-c3cccc(Br)n3)[nH]n2)cc1` [Compound 58, 4-[5-(6-bromopyridin-2-yl)-1H-pyrazol-3-yl]-N-methylaniline]: the results for the Ki in assay [1] (setting [6]) and in assay [2] were 5.1 nM and 5 nM, respectively.

The record behind these values is patent publication US20230067910A1, “NOVEL COMPOUNDS FOR THE DIAGNOSIS, TREATMENT AND PREVENTION OF DISEASES ASSOCIATED WITH THE AGGREGATION OF ALPHA-SYNUCLEIN” (MODAG GMBH, priority 2019, published 2023).
